The values below come from US6509002B1, “Diagnostic agent for diabetes” (priority 1997, dated 2003).

This series can be described thus: ^13C breath test, oral administration, diabetic vs normal rats. It counts as in vivo, rat. As to conditions: 300 mg/kg orally, Example 6. As to the method:
As test animals, male Sprague-Dawley strain (SD) neonatal rats were purchased from Nippon Charles River K. K. together with their lactating rats. They were bred at 23±2° C. under 55±10% humidity before use. Insulin secretion-deficient type diabetes was generated by administering streptozotocin (STZ) to neonatal rats (“Saibokogaku (Cell Engineering)”, Extra Issue, medical Experiment Manual Series, Strategy for Study of Diabetes, edited by Susumu Seino and Yoshikazu Oka, published by Shujunsha Co., Japan). STZ was subcutaneously administered to 2-day-old rats at a dose of 90 mg/kg. The STZ had been dissolved in a citrate buffer (pH 4.5) and was administered within 5 min after the dissolution. Two days after the administration, blood was collected by cardiac puncture, and the casual blood sugar level of each rat was measured with Terumo […] (blood sugar measurement set). […] However, their fasting blood sugar levels increase only slightly and remain at almost normal levels. According to the standards stipulated by the Japan Diabetes Society (1982), those individuals with a fasting blood sugar level (in venous whole blood) of […] or more are regarded as having diabetes (“[…] (Diabetes Test Manual)”, edited by Yukio […], published by Nanko-Do Co., Japan). Then, those rats with a fasting blood sugar level of less than 120 mg/dl (and with a casual blood sugar level of 250 mg/dl or more) which are not regarded as having diabetes in a fasting blood sugar level test were selected from the above-described rats with insulin secretion-deficient type diabetes and used as a model of light diabetes. Breath tests were carried out according to the method as described in (2)-1 or (2)-2 below on diabetic rats prepared in (1) above (8-10-week-old) and normal rats (8-10-week-old). Δ^13C (‰)=[(^13C t min-^13C 0 min)/^13C std]×1000 […] A blood sample was collected from the tail vein, and its sugar level was determined using Terumo […] (blood sugar measurement set). The exhalation was sucked with a stroke pump 18 (variable stroke pump VS-500; Shibata Scientific Technology) at a rate of 100-300 ml/min and introduced directly into a flow cell in ^13CO2 Analyzer EX-130S (Japan Spectroscopic Co., Ltd.) 20. […] Pure Drier ([…] Pure Inc.) was located between the rat holder and the stroke pump 18 to remove moisture in the exhalation (FIG. 1). […] The data output from the ^13CO2 analyzer 20 were incorporated into a personal computer 21 (Apple Power Macintosh 8500) after AD conversion. Using the data processing software Lab VIEW (National Instruments), data on ten points at every 100 msec were added up and averaged at intervals of 5 sec and then converted into ^13C atom %, Δ^13C (‰) and CO2 gas concentration (%), to thereby perform a continuous measurement ^13C breath test. […] Δ^13C (‰) was calculated by the formula described above.

For the molecule `O=[13CH][C@H](O)[C@@H](O)[C@H](O)CO` [1-^13C-xylose], for the setting “diabetic rats”, the “slope from 20 to 30 min after the administration” value is recorded as 12.80±2.18 ‰/10 min and the “Δ^13C value (‰) at 30 min after the administration” value was 23.40±7.60 ‰. Also, where the note is “normal rats”, the “slope from 20 to 30 min after the administration” value is 4.61±1.40 ‰/10 min and the “Δ^13C value (‰) at 30 min after the administration” value is listed as 6.82±3.02 ‰.
